Data on two compounds can be found in PMC11324517 (Nature, 2024).

The target in one assay is T1, ∆-hDAT T211H (Homo sapiens, UniProt Q01959, I248Y/T211H).
T1 construct: expressed in transfected cells; host or cells: HEK293 GnTI- cells, BacMam baculovirus transduction
Briefly: Zn2+ inhibition of [3H]dopamine uptake (IC50), T211H mutant. The conditions noted are these: for T211H total: [3H]dopamine uptake raw counts, Fig 3c, triplicates, replicates 1-3. Type of assay: cell-based. As to the method: (§1) For IC50 measurements of Zn^2+, uptake assays were carried out as described for MRS7292 with the following alterations. The uptake buffer contained EPPS at pH 8.5 in place of HEPES. Cells were washed once with uptake buffer containing 1 mM ethylenediaminetetraacetic acid (EDTA) to chelate ambient Zn^2+ from the cell growth medium, followed by second wash without EDTA. Cells were then incubated for 15 min in uptake buffers containing 0.3–300 µM added Zn^2+ for ∆-hDAT, 0.1–100 µM added Zn^2+ for T211H, and 0.03–30 µM added Zn^2+ for T211E. […] The IC50 of Zn^2+ for the T211E mutant was also measured at pH 7.5 to obtain a more complete inhibition curve.

A further assay addresses T2, ∆-hDAT T211E (Homo sapiens, UniProt Q01959, I248Y/T211E).
T2 construct: expressed in transfected cells; host or cells: HEK293 GnTI- cells, BacMam baculovirus transduction
Briefly: Zn2+ inhibition of [3H]dopamine uptake (IC50), T211E mutant. The assay is classed as cell-based. The conditions noted are these: for T211E total: [3H]dopamine uptake raw counts, Fig 3c, triplicates, replicates 1-3. As to the method:
as §1

A further assay deals with hDAT D191N. Conditions: D191 mutated to asparagine; cited from earlier work.
Assay [1] concerns the target T3, ∆-hDAT (Homo sapiens, UniProt Q01959, I248Y). Briefly: Zn2+ inhibition of [3H]dopamine uptake (IC50), ∆-hDAT. Type of assay: cell-based. On the set-up: expressed in transfected cells; host or cells: HEK293 GnTI- cells, BacMam baculovirus transduction. Conditions: [3H]dopamine uptake raw counts, Fig 3c, triplicates, replicates 1-3. As to the method: as §1
Assay [2] addresses T3, ∆-hDAT. The experiment in a line: Scintillation proximity assay (SPA), [3H]WIN35428 binding to purified His-tagged ∆-hDAT. Set-up: expressed in transfected cells; host or cells: HEK293 GnTI- cells, BacMam baculovirus transduction. Conditions: β-CFT 0.617 nM, background not subtracted. How it is done: The various buffer systems were unchanged. YSi-Cu SPA beads at 1 mg ml^−1 were added to ∆-hDAT (30 nM) in SEC buffer (0.02% digitonin, 0.002% CHS, 50 mM HEPES pH 7.8, 200 mM NaCl, 25 µM POPC and 4 µM MRS7292). [^3H]-WIN35428 (82.8 Ci mmol^−1) in 20 mM HEPES pH 7.8 and 100 mM NaCl was used at concentration points ranging from 0 to 150 nM. For background measurement, 100 µM of GBR12909 was added to the assay buffer. Reactants were added to a 96-well isoplate, briefly mixed on a shaker at room temperature, and [^3H] counts were recorded using a MicroBeta2. […] Background subtracted counts were plotted and analysed by a single-site binding model via nonlinear regression analysis in GraphPad Prism v7.05.
(In general: In a scintillation proximity assay essentially only radioactivity close to the scintillant gives light.)

“And” between values parts separate entries of the source, which are not always exact repeats. Identical values can stand only once.

T1 sequence (Q01959 57-620 T211H/I248Y limits assumed): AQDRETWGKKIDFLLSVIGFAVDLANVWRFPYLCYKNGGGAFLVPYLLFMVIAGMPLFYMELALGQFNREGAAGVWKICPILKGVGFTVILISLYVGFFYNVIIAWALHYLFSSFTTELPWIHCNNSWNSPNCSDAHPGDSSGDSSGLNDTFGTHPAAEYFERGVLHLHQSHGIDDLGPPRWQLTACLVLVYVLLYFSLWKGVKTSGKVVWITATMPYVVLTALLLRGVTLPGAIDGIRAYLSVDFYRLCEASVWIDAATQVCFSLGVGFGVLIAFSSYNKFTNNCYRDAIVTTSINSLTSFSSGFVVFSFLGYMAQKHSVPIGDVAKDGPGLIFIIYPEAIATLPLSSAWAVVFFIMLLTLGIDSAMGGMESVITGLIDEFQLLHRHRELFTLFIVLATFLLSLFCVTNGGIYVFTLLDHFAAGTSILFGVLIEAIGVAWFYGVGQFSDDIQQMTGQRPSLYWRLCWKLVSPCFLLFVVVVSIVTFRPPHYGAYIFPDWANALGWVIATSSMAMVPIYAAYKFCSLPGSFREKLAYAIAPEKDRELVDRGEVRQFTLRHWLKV
T3 sequence (Q01959 57-620 I248Y limits assumed): as the sequence (Q01959 57-620 T211H/I248Y limits assumed) above, with H155T counted along it
T2 sequence (Q01959 57-620 T211E/I248Y limits assumed): as the sequence (Q01959 57-620 T211H/I248Y limits assumed) above, with H155E counted along it

On to `[Zn+2]` [Zn^2+], for which the T211H total at ∆-hDAT T211H (Added Zn2+ 0.14 µM) is 2307 and 2405 and 2334 and 1111 and 679 and 946 and 2428 and 2969 and 2868; at ∆-hDAT T211H (Added Zn2+ 0.41 µM) it was 1917 and 1650 and 1702 and 922 and 890 and 993 and 2213 and 1804 and 1794; at ∆-hDAT T211H (Added Zn2+ 1.23 µM) it was 1146 and 1389 and 1404 and 571 and 540 and 534 and 1806 and 1414 and 1274; at ∆-hDAT T211H (Added Zn2+ 3.70 µM), 951 and 892 and 809 and 316 and 317 and 411 and 837 and 824 and 1109; at ∆-hDAT T211H (Added Zn2+ 11.11 µM) it was 810 and 577 and 717 and 230 and 281 and 267 and 486 and 515 and 477; on ∆-hDAT T211H (Added Zn2+ 33.33 µM), 528 and 524 and 546 and 246 and 210 and 198 and 441 and 462 and 475. Further, the T211H total at ∆-hDAT T211H (Added Zn2+ 100.00 µM) was 419 and 394 and 350 and 158 and 145 and 163 and 252 and 226 and 267. Further, the “IC50 of Zn2+ lower than that of ∆-hDAT” value against ∆-hDAT T211H (T211H mutant, [3H]dopamine uptake, pH 8.5) is approximately 20 fold; at ∆-hDAT T211E (T211E mutant, [3H]dopamine uptake, pH 8.5), “around 100 fold”. In addition, the T211E total was 1043 and 1084 and 946 and 1214 and 1350 and 1252 and 1437 and 1516 and 1325 at ∆-hDAT T211E (Added Zn2+ 0.0457 µM); 623 and 609 and 563 and 777 and 766 and 728 and 853 and 1009 and 867 at ∆-hDAT T211E (Added Zn2+ 0.14 µM); 635 and 450 and 501 and 372 (2×) and 389 and 527 and 516 and 677 on ∆-hDAT T211E (Added Zn2+ 0.41 µM); 459 and 447 and 440 and 286 and 276 and 244 and 481 and 403 (2×) on ∆-hDAT T211E (Added Zn2+ 1.23 µM); 335 and 268 and 302 and 159 and 217 and 381 and 284 and 246 and 231 on ∆-hDAT T211E (Added Zn2+ 3.70 µM); 323 and 314 and 345 and 238 and 249 and 229 and 277 and 278 on ∆-hDAT T211E (Added Zn2+ 11.11 µM). In addition, on ∆-hDAT T211E (Added Zn2+ 33.33 µM), the T211E total is 416 and 290 and 362 and 261 and 242 and 215 and 342 and 313 and 301. Further, the “decrease in apparent Zn2+ affinity” value in the assay with hDAT D191N was “apparent threefold decrease”. The Δ-hDAT total counts on ∆-hDAT [1] (Added Zn2+ 0.41 µM) is 3458 counts and 3089 counts and 3357 counts and 3017 counts and 2960 counts and 2624 counts and 3155 counts and 3308 counts and 3482 counts; at ∆-hDAT [1] (Added Zn2+ 1.23 µM), 3105 counts and 3118 counts and 3175 counts and 2225 counts and 1943 counts and 2195 counts and 3616 counts and 3027 counts and 2892 counts; at ∆-hDAT [1] (Added Zn2+ 3.70 µM) it was 1979 counts and 2178 counts and 2228 counts and 2099 counts and 1947 counts and 1866 counts and 2321 counts and 2149 counts and 1943 counts; at ∆-hDAT [1] (Added Zn2+ 11.11 µM) it was 2029 counts and 1818 counts and 1787 counts and 1695 counts and 1560 counts and 1477 counts and 1550 counts and 1703 counts and 2026 counts; on ∆-hDAT [1] (Added Zn2+ 33.33 µM), 1238 counts and 1123 counts and 1240 counts and 1063 counts and 1147 counts and 906 counts and 1573 counts and 1503 counts and 1606 counts; on ∆-hDAT [1] (Added Zn2+ 100.00 µM), 771 counts and 681 counts and 793 counts and 660 counts and 598 counts and 682 counts and 1221 counts and 1015 counts and 885 counts. Further, at ∆-hDAT [1] (Added Zn2+ 300.00 µM), the Δ-hDAT total counts was 402 counts and 451 counts and 435 counts and 386 counts and 349 counts and 353 counts and 418 counts and 427 counts.
As for `COC(=O)C1C(c2ccc(F)cc2)CC2CCC1N2C` (single isomer, unassigned; (-)) [β-CFT, (–)-2-β-carbomethoxy-3-β-(4-fluorophenyl)tropane], the “SPA total counts, binding to purified ∆-hDAT” value on ∆-hDAT [2] is 204 and 169 and 192 and 177 and 171 and 174 and 189 and 179.
